This passage reports Emax and EC50 results from US12398119B2, “Piperazine azaspiro derivatives” (PFIZER INC., priority 2018, dated 2025).

The target in this assay is T1, Human M4 mAChR (Homo sapiens, UniProt P08173).
T1 construct: host or cells: HEK293 (Sor-L9 HEK293 human/M4/GloSensor Cell Clone Number 40)
T1 sequence (P08173 1-479): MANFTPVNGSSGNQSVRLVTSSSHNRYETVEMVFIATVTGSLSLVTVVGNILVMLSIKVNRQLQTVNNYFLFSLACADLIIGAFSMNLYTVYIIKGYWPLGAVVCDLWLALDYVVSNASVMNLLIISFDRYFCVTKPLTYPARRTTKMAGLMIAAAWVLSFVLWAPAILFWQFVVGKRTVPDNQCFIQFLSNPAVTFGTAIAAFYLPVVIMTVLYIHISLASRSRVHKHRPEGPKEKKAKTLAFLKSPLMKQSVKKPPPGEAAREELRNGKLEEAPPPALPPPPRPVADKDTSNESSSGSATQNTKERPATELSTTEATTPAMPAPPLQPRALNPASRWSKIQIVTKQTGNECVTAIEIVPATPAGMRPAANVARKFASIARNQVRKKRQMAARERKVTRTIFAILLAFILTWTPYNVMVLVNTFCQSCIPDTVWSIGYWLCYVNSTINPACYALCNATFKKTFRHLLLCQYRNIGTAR
In words: Muscarinic hM4 Agonist GloSensor cAMP Assay. It counts as cell-based. To be noted: geometric mean; for Emax: Emax: maximum asymptote of concentration response curve, relative to ACh positive control (EC100) and DMSO, read-out: % maximum effect; for EC50: HEK293 human/M4/GloSensor cells, EC80 isoproterenol, number of determinations in parentheses, read-out: EC50. A digest of the protocol: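 HEK293 GloSensor cells stably expressing human M4, plated 25,000/well overnight, equilibrated 2 h with GloSensor reagent, then exposed 7 min at room temperature to compound ([…] to 0.3 nM, 0.25% DMSO) plus EC80 isoproterenol. Luminescence normalized to 10 μM ACh (EC100) and DMSO controls; four-parameter fit gave EC50 and maximum asymptote (efficacy).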

Turning to `CCOC(=O)N1CC2(CCC(N3CCN(c4ncccc4-c4sc(C)nc4C)CC3)C2)C1` (stereo not drawn) [Example 36, ethyl 6-{4-[3-(2,4-dimethyl-1,3-thiazol-5-yl)pyridin-2-yl]piperazin-1-yl}-2-azaspiro[3.4]octane-2-carboxylate], the Emax turned out to be 80.6% and the EC50 worked out at 7.72 nM.

For `CCOC(=O)N1CC2(CC[C@@H](N3CCN(c4nccnc4N4CCOCC4)CC3)C2)C1` [Example 42, ethyl (6R)-6-{4-[3-(morpholin-4-yl)pyrazin-2-yl]piperazin-1-yl}-2-azaspiro[3.4]octane-2-carboxylate], the Emax was 92.9% and the EC50 turned out to be 12.3 nM.

For the compound `CCOC(=O)N1CC2(CCC(N3CCN(c4nccnc4OC)CC3)C2)C1` (single isomer, unassigned) [Example 27, ethyl 6-[4-(3-methoxypyrazin-2-yl)piperazin-1-yl]-2-azaspiro[3.4]octane-2-carboxylate], the Emax is 25.1% and the EC50 came out at 11.4 nM.
